Converted amounts (≈) assume the structure as drawn. The source made the active and inactive calls. No cut-off for these calls is given here. Where a SMILES comes first, the peptide text is derived from it.
What was measured:
Pseudomonas aeruginosa = assay: Antibacterial activity against Pseudomonas aeruginosa CUN 4158-02 after 24 hrs in Mueller-Hinton broth medium; type: functional
[1] = test system: Bordetella bronchiseptica; assay: Antibacterial activity against Bordetella bronchiseptica CUN 11844-99 after 24 hrs in Mueller-Hinton broth medium; type: functional
Acinetobacter baumannii = assay: Antibacterial activity against Acinetobacter baumannii ATCC 19606 after 24 hrs in Mueller-Hinton broth medium; type: functional; details: ATCC 19606, 24 h
HeLa [2] = assay: Cytotoxicity against human HeLa cells at 100 ug/ml after 24 hrs by MTT assay relative to control; type: functional
Brucella abortus [3] = assay: Antibacterial activity against Brucella abortus 9.19 (per-) after 24 hrs in Mueller-Hinton broth medium; type: functional
HeLa [4] = assay: Cytotoxicity against human HeLa cells at 100 ug/ml after 24 hrs by neutral red uptake assay relative to control; type: functional
Brucella abortus [5] = assay: Antibacterial activity against Brucella abortus 9.49 (per-) after 48 hrs in Mueller-Hinton broth medium; type: functional
Escherichia coli [6] = assay: Antibacterial activity against Escherichia coli ATCC 25922 after 24 hrs in Mueller-Hinton broth medium; type: functional; details: ATCC 25922, 24 h
Escherichia coli [7] = assay: Antibacterial activity against Escherichia coli K12 ATCC 23716 in 10% Luria-Bertani medium/90% Hepes buffer at pH 7.0; type: functional
Escherichia coli [8] = assay: Antibacterial activity against Escherichia coli K12 ATCC 23716 after 24 hrs in Mueller-Hinton broth medium; type: functional; details: K12, 24 h
Staphylococcus aureus = assay: Antibacterial activity against methicillin-resistant Staphylococcus aureus ATCC 43300 after 24 hrs in Mueller-Hinton broth medium; type: functional; details: ATCC 43300, 24 h
[9] = Toxicity in human erythrocytes assessed as hemolysis at 100 ug/ml; type: cell-based, Erythrocyte; details: read-out: Activity

| SMILES | MBC (Pseudomonas aeruginosa) [µg/mL] | MIC (Pseudomonas aeruginosa) [µg/mL] | MBC [1] [µg/mL] | MIC [1] [µg/mL] | MBC (Acinetobacter baumannii) [µg/mL] | MIC (Acinetobacter baumannii) [µg/mL] | Activity (HeLa [2]) | MBC (Brucella abortus [3]) [µg/mL] | Activity (HeLa [4]) [%] | MIC (Brucella abortus [5]) [µg/mL] | MBC (Escherichia coli [6]) [µg/mL] | MIC (Escherichia coli [6]) [µg/mL] | MBC (Escherichia coli [7]) [µg/mL] | MIC (Escherichia coli [7]) [µg/mL] | MBC (Escherichia coli [8]) [µg/mL] | MIC (Escherichia coli [8]) [µg/mL] | MBC (Staphylococcus aureus) [µg/mL] | MIC (Staphylococcus aureus) [µg/mL] | hemolysis at 100 ug/ml [9] [%] |
| --- | --- | --- | --- | --- | --- | --- | --- | --- | --- | --- | --- | --- | --- | --- | --- | --- | --- | --- | --- |
| CC[C@H](C)[C@H](NC(=O)[C@H](CCCCN)NC(=O)[C@H](CCCCN)NC(=O)[C@H](CO)NC(=O)[C@@H](NC(=O)[C@@H](N)CCCCN)[C@@H](C)CC)C(=O)N[C@@H](CCSC)C(=O)N[C@@H](CCCNC(=N)N)C(=O)N[C@H](C(=O)N[C@@H](Cc1ccccc1)C(=O)N[C@@H](CC(C)C)C(=O)N[C@@H](CCCNC(=N)N)C(=O)N[C@@H](CCCNC(=N)N)C(=O)N[C@H](C(=O)N[C@@H](CC(C)C)C(=O)N[C@H](C(=O)NCC(=O)N[C@@H](CCCCN)C(=O)N[C@@H](CCCCN)C(N)=O)[C@@H](C)O)[C@@H](C)CC)[C@@H](C)O (H-KISKKIMRTFLRRILTGKK-NH2) | 8 (≈ 3.45 µM) | 8 (≈ 3.45 µM) | 128 (≈ 55.2 µM) | 128 (≈ 55.2 µM) | 4 (≈ 1.73 µM) | 4 (≈ 1.73 µM) | 21.1% | 32 (≈ 13.8 µM) | 56.4 | 2 (≈ 0.863 µM) | 16 (≈ 6.91 µM) | 16 (≈ 6.91 µM) | 50 (≈ 21.6 µM) | 25 (≈ 10.8 µM) | 8 (≈ 3.45 µM) | 8 (≈ 3.45 µM) | 256 (≈ 110 µM) | 256 (≈ 110 µM) |  |
| CC[C@H](C)[C@H](NC(=O)[C@H](CCCNC(=N)N)NC(=O)[C@H](CCCNC(=N)N)NC(=O)[C@H](CC(C)C)NC(=O)[C@H](Cc1ccccc1)NC(=O)[C@@H](NC(=O)[C@H](CCCNC(=N)N)NC(=O)[C@H](CCSC)NC(=O)[C@@H](NC(=O)[C@H](CCCCN)NC(=O)[C@H](CCCCN)NC(=O)[C@H](CO)NC(=O)[C@@H](NC(=O)[C@@H](N)CCCCN)[C@@H](C)CC)[C@@H](C)CC)[C@@H](C)O)C(=O)N[C@@H](CO)C(=O)N[C@@H](CCCCN)C(=O)N[C@@H](CC(=O)O)C(=O)N[C@H](C(=O)N[C@@H](CC(C)C)C(=O)N[C@H](C(=O)NCC(=O)N[C@@H](CCCCN)C(=O)N[C@@H](CCCCN)C(N)=O)[C@@H](C)O)[C@@H](C)CC (H-KISKKIMRTFLRRISKDILTGKK-NH2) | 4 (≈ 1.45 µM) | 4 (≈ 1.45 µM) | 1 (≈ 0.362 µM) | 1 (≈ 0.362 µM) | 4 (≈ 1.45 µM) | 4 (≈ 1.45 µM) | inactive | 64 (≈ 23.2 µM) |  | 2 (≈ 0.725 µM) | 4 (≈ 1.45 µM) | 4 (≈ 1.45 µM) | 12.5 (≈ 4.53 µM) | 12.5 (≈ 4.53 µM) | 4 (≈ 1.45 µM) | 4 (≈ 1.45 µM) | > 256 | > 256 | < 5 |
| CC[C@H](C)[C@H](NC(=O)[C@H](CCCNC(=N)N)NC(=O)[C@H](CCCCN)NC(=O)[C@H](CO)NC(=O)[C@@H](NC(=O)[C@@H](N)CCCCN)[C@@H](C)CC)C(=O)N[C@@H](CC(C)C)C(=O)N[C@H](C(=O)NCC(=O)N[C@@H](CCCCN)C(=O)N[C@@H](CCCCN)C(=O)O)[C@@H](C)O (H-KISKRILTGKK-OH) | > 256 | > 256 | > 256 | > 256 | > 256 | > 256 | inactive | > 256 |  | > 256 | > 256 | > 256 | > 200 | 200 (≈ 157 µM) | > 256 | > 256 | > 256 | > 256 | < 5 |
| CC[C@H](C)[C@H](NC(=O)[C@H](CCCCN)NC(=O)[C@@H](N)CCCCN)C(=O)N[C@@H](CCSC)C(=O)N[C@@H](CCCNC(=N)N)C(=O)N[C@H](C(=O)N[C@@H](Cc1ccccc1)C(=O)N[C@@H](CC(C)C)C(=O)N[C@@H](CCCNC(=N)N)C(=O)N[C@@H](CCCNC(=N)N)C(N)=O)[C@@H](C)O (H-KKIMRTFLRR-NH2) | > 256 | > 256 | > 256 | > 256 | > 128 | > 128 | inactive | < 256 |  | 128 (≈ 95 µM) | > 256 | 256 (≈ 190 µM) | 50 (≈ 37.1 µM) | 25 (≈ 18.5 µM) | 256 (≈ 190 µM) | 256 (≈ 190 µM) | > 256 | 256 (≈ 190 µM) | < 5 |
| CC[C@H](C)[C@H](NC(=O)[C@H](CCCNC(=N)N)NC(=O)[C@H](CCCNC(=N)N)NC(=O)[C@H](CC(C)C)NC(=O)[C@H](Cc1ccccc1)NC(=O)[C@@H](NC(=O)[C@H](CCCNC(=N)N)NC(=O)[C@H](CCSC)NC(=O)[C@@H](NC(=O)[C@H](CCCCN)NC(=O)[C@@H](N)CCCCN)[C@@H](C)CC)[C@@H](C)O)C(=O)N[C@@H](CO)C(=O)N[C@@H](CCCCN)C(=O)N[C@@H](CC(=O)O)C(=O)N[C@H](C(=O)N[C@@H](CC(C)C)C(=O)N[C@H](C(=O)NCC(=O)N[C@@H](CCCCN)C(=O)N[C@@H](CCCCN)C(N)=O)[C@@H](C)O)[C@@H](C)CC (H-KKIMRTFLRRISKDILTGKK-NH2) | 128 (≈ 52.6 µM) | 128 (≈ 52.6 µM) | 8 (≈ 3.29 µM) | 4 (≈ 1.64 µM) | 64 (≈ 26.3 µM) | 8 (≈ 3.29 µM) | inactive | > 256 |  | 16 (≈ 6.58 µM) | 64 (≈ 26.3 µM) | 16 (≈ 6.58 µM) | 32 (≈ 13.2 µM) | 32 (≈ 13.2 µM) | 32 (≈ 13.2 µM) | 32 (≈ 13.2 µM) | > 256 | > 256 | < 5 |
| CC[C@H](C)[C@H](NC(=O)[C@H](CCCNC(=N)N)NC(=O)[C@H](CCCNC(=N)N)NC(=O)[C@H](CC(C)C)NC(=O)[C@H](Cc1ccccc1)NC(=O)[C@@H](NC(=O)[C@H](CCCNC(=N)N)NC(=O)[C@H](CCSC)NC(=O)[C@@H](NC(=O)[C@H](CCCCN)NC(=O)[C@@H](N)CCCCN)[C@@H](C)CC)[C@@H](C)O)C(=O)N[C@@H](CO)C(=O)N[C@@H](CCCCN)C(=O)N[C@@H](CCCCN)C(=O)N[C@H](C(=O)N[C@@H](CC(C)C)C(=O)N[C@H](C(=O)NCC(=O)N[C@@H](CCCCN)C(=O)N[C@@H](CCCCN)C(N)=O)[C@@H](C)O)[C@@H](C)CC (H-KKIMRTFLRRISKKILTGKK-NH2) | 128 (≈ 52.3 µM) | 32 (≈ 13.1 µM) | 16 (≈ 6.54 µM) | 2 (≈ 0.818 µM) | 8 (≈ 3.27 µM) | 8 (≈ 3.27 µM) | inactive | 32 (≈ 13.1 µM) |  | 4 (≈ 1.64 µM) | 64 (≈ 26.2 µM) | 32 (≈ 13.1 µM) | 32 (≈ 13.1 µM) | 16 (≈ 6.54 µM) | 32 (≈ 13.1 µM) | 16 (≈ 6.54 µM) | 256 (≈ 105 µM) | 128 (≈ 52.3 µM) | < 5 |
| CC[C@H](C)[C@H](NC(=O)CN)C(=O)NCC(=O)N[C@@H](C)C(=O)N[C@H](C(=O)N[C@@H](CC(C)C)C(=O)N[C@@H](CCCCN)C(=O)N[C@H](C(=O)N[C@@H](CC(C)C)C(=O)N[C@H](C(=O)N[C@H](C(=O)NCC(=O)N[C@@H](CC(C)C)C(=O)N1CCC[C@H]1C(=O)N[C@@H](C)C(=O)N[C@@H](CC(C)C)C(=O)N[C@H](C(=O)N[C@@H](CO)C(=O)N[C@@H](Cc1c[nH]c2ccccc12)C(=O)N[C@H](C(=O)N[C@@H](CCCCN)C(=O)N[C@@H](CCCNC(=N)N)C(=O)N[C@@H](CCCCN)C(=O)N[C@@H](CCCNC(=N)N)C(=O)N[C@@H](CCC(N)=O)C(=O)N[C@@H](CCC(N)=O)C(N)=O)[C@@H](C)CC)[C@@H](C)CC)[C@@H](C)O)[C@@H](C)O)C(C)C)C(C)C [MELITTIN] | 16 (≈ 5.62 µM) |  | 4 (≈ 1.41 µM) | 4 (≈ 1.41 µM) | 2 (≈ 0.703 µM) | 2 (≈ 0.703 µM) | 90.1% | 4 (≈ 1.41 µM) | 86 | 4 (≈ 1.41 µM) | 4 (≈ 1.41 µM) |  | 12.5 (≈ 4.39 µM) |  | 4 (≈ 1.41 µM) |  | 2 (≈ 0.703 µM) |  |  |

Reference: ChEMBL document CHEMBL1156451 (J Biol Chem, 2007)
